Consider 54 compounds from patent publication US8785489B2, “Heteroaryl substituted indole compounds useful as MMP-13 inhibitors” (Boehringer Ingelheim International GmbH, priority 2008, dated 2014).

What is called IC50 is the point on the concentration scale where inhibition reaches its midpoint.

This test deals with MMP13 (Homo sapiens (Human), UniProt P45452). Description: EnzoLyte 520 Generic MMP Assay Kit, 5-FAM/QXL 520 FRET peptide substrate. Format: biochemical. The text has this: The EnzoLyte™ 520 Generic MMP Assay Kit (AnaSpec Inc.) can detect the activity of several MMPs including MMP-1, 2, 3, 7, 8, 9, 13, and 14. This kit uses a 5-FAM/QXL™ 520 fluorescence resonance energy transfer (FRET) peptide as an MMP substrate. In the intact FRET peptide, the fluorescence of 5-FAM is quenched by QXL™ 520. Upon cleavage into two separate fragments by MMPs, the fluorescence of 5-FAM is recovered, and can be monitored at excitation/emission wavelengths=490 nm/520 nm. The assays are performed in a convenient 96-well or 384-well microplate format.
`Cc1noc(-c2cc3cc(-c4nc(C(=O)NCC5CCCO5)[nH]c4C)ccc3[nH]2)n1` (stereo not drawn) [5-methyl-4-[2-(3-methyl-1,2,4-oxadiazol-5-yl)-1H-indol-5-yl]-N-(tetrahydrofuran-2-ylmethyl)-1H-imidazole-2-carboxamide] registered an IC50 of 3 nM.

In the case of `Cc1noc(-c2cc3cc(-c4nc(C(=O)NCc5nccs5)[nH]c4C)ccc3[nH]2)n1` [5-methyl-4-[2-(3-methyl-1,2,4-oxadiazol-5-yl)-1H-indol-5-yl]-N-(1,3-thiazol-2-ylmethyl)-1H-imidazole-2-carboxamide], the IC50 is 2 nM.

`Cc1noc(-c2cc3cc(-c4cc(C(=O)NCc5cc(C)on5)nn4C)ccc3[nH]2)n1` [1-methyl-N-[(5-methylisoxazol-3-yl)methyl]-5-[2-(3-methyl-1,2,4-oxadiazol-5-yl)-1H-indol-5-yl]-1H-pyrazole-3-carboxamide] displayed a 50% inhibitory concentration (IC50) of 24 nM.

The compound `Cc1noc(-c2cc3cc(-c4nc(C(=O)NCc5noc(C)n5)[nH]c4C)ccc3[nH]2)n1` registered an IC50 of 0.9 nM.

On to `Cn1nc(C(=O)NCc2ccc(C(=O)O)cc2)cc1-c1ccc2[nH]c(C3=NCCO3)cc2c1`, for which the half-inhibitory concentration (IC50) came out at 43 nM. This IC50 lies about 48-fold higher than the previous one.

The compound `Cc1noc(-c2cc3cc(-c4nc(C(=O)NCc5ccc(C(O)C(F)(F)F)cc5)[nH]c4C)ccc3[nH]2)n1` (stereo not drawn) showed an IC50 of 18 nM.

For `CCOC(=O)c1cc2cc(-c3cc(C(=O)NCc4ccncc4)ncc3C)ccc2[nH]1`, inhibition was half-maximal at 155 nM (IC50).

Regarding `Cc1noc(-c2cc3cc(-c4cc(C(=O)NCc5ccc(C#N)cc5)nn4C)ccc3[nH]2)n1`, the half-maximal inhibitory concentration (IC50) was found to be 10 nM.

Consider `Cn1nc(C(=O)NCc2ccc(C(=O)O)cc2)cc1-c1ccc2[nH]c(-c3ccc(F)nc3)cc2c1`, for which the IC50 was found to be 48 nM.

`Cc1noc(-c2cc3cc(-c4ccnc(C(=O)NCc5ccncc5)c4)ccc3[nH]2)n1` came in with an IC50 of 12 nM.

`Cc1noc(-c2cc3cc(-c4cc(C(=O)NCC5CCOCC5)nn4C)ccc3[nH]2)n1` [1-methyl-5-[2-(3-methyl-1,2,4-oxadiazol-5-yl)-1H-indol-5-yl]-N-(tetrahydro-2H-pyran-4-ylmethyl)-1H-pyrazole-3-carboxamide] gave a concentration for half-maximal inhibition (IC50) of 116 nM.

With `CCOC(=O)c1cc2nc(-c3nc(C(=O)NCc4ccncc4)[nH]c3C)ccc2[nH]1`, the 50% inhibitory concentration (IC50) was determined as 95 nM.

Turning to `Cc1noc(-c2cc3cc(-c4nc(C(=O)NCc5cccs5)[nH]c4C)ccc3[nH]2)n1`, the IC50 was 2 nM.

Take `Cc1noc(-c2cc3cc(-c4nc(C(=O)NCc5ccnc(N)c5)[nH]c4C)ccc3[nH]2)n1`: half-maximal inhibition (IC50) was put at 1.3 nM.

For the compound `Cc1noc(-c2cc3cc(-c4cc(C(=O)NCc5ccco5)nn4C)ccc3[nH]2)n1`, the IC50 turned out to be 27 nM.

The compound `Cc1noc(-c2cc3cc(-c4cc(C(=O)NCc5ccc(C(=O)O)cc5)nn4C)ccc3[nH]2)n1` had an IC50 of 0.2 nM.

In turn, `Cc1noc(-c2cc3cc(-c4cc(C(=O)NCc5ccccc5)nn4C)ccc3[nH]2)n1` [N-benzyl-1-methyl-5-[2-(3-methyl-1,2,4-oxadiazol-5-yl)-1H-indol-5-yl]-1H-pyrazole-3-carboxamide] came in with an IC50 of 26 nM. This IC50 lies about 130-fold higher than the previous one.

For the compound `CCNC(=O)c1nc(-c2ccc3[nH]c(-c4nc(C)no4)cc3c2)c(C)[nH]1`, the half-inhibitory concentration (IC50) amounted to 10 nM.

The compound `Cc1noc(-c2cc3cc(-c4nc(C(=O)NCC5CCOCC5)[nH]c4C)ccc3[nH]2)n1` [5-methyl-4-[2-(3-methyl-1,2,4-oxadiazol-5-yl)-1H-indol-5-yl]-N-(tetrahydro-2H-pyran-4-ylmethyl)-1H-imidazole-2-carboxamide] displayed an IC50 of 1.1 nM.

`Cc1noc(-c2cc3cc(-c4nc(C(=O)NCc5ccoc5)[nH]c4C)ccc3[nH]2)n1` returned an IC50 of 3 nM.

For the compound `Cc1noc(-c2cc3cc(-c4nc(C(=O)NCc5ccccc5)[nH]c4C)ccc3[nH]2)n1` [N-benzyl-5-methyl-4-[2-(3-methyl-1,2,4-oxadiazol-5-yl)-1H-indol-5-yl]-1H-imidazole-2-carboxamide], the IC50 was 2 nM.

In the case of `Cc1noc(-c2cc3cc(-c4cc(C(=O)NCc5ccoc5)nn4C)ccc3[nH]2)n1`, inhibition was half-maximal at 45 nM (IC50).

As for `Cc1noc(-c2cc3cc(-c4nc(C(=O)NCc5nnc(C)[nH]5)[nH]c4C)ccc3[nH]2)n1`, half-maximal inhibition (IC50) required 17 nM.

For `CCOC(=O)c1cc2cc(-c3nc(C(=O)NCc4ccncc4)[nH]c3C)ccc2[nH]1`, the IC50 amounted to 2 nM.

`Cc1noc(-c2cc3cc(-c4nc(C(=O)NCc5ccncn5)[nH]c4C)ccc3[nH]2)n1` gave a half-inhibitory concentration (IC50) of 0.6 nM.

With `Cc1noc(-c2cc3cc(-c4nc(C(=O)NCc5ccnnc5)[nH]c4C)ccc3[nH]2)n1`, 1.2 nM corresponded to half-maximal inhibition (IC50). Compared with the last compound, the IC50 is about 2-fold higher.

In turn, `Cc1noc(-c2cc3cc(-c4nc(C(=O)NCC5(O)CCOCC5)[nH]c4C)ccc3[nH]2)n1` came in with an IC50 of 6 nM. Against the preceding compound, the IC50 is about 5-fold higher.

The compound `Cc1noc(-c2cc3cc(-c4nc(C(N)=O)[nH]c4C)ccc3[nH]2)n1` [5-methyl-4-[2-(3-methyl-1,2,4-oxadiazol-5-yl)-1H-indol-5-yl]-1H-imidazole-2-carboxamide] returned a concentration for half-maximal inhibition (IC50) of 10 nM.

`Cc1noc(-c2cc3cc(-c4ccnc(C(=O)NCc5ccc(C(=O)O)cc5)c4)ccc3[nH]2)n1` yielded an IC50 of 0.2 nM.

Turning to `Cc1noc(-c2cc3cc(-c4cc(C(=O)NCc5ccnn5C)nn4C)ccc3[nH]2)n1` [1-methyl-5-[2-(3-methyl-1,2,4-oxadiazol-5-yl)-1H-indol-5-yl]-N-[(1-methyl-1H-pyrazol-5-yl)methyl]-1H-pyrazole-3-carboxamide], the IC50 was 125 nM.

`Cc1noc(-c2cc3cc(-c4cc(C(=O)NCc5ccncc5)ncc4C)ccc3[nH]2)n1` returned an IC50 of 14 nM.

In the case of `Cc1noc(-c2cc3cc(-c4nc(C(=O)NCc5ccc(N)nc5)[nH]c4C)ccc3[nH]2)n1`, it took 2 nM to reach half-maximal inhibition (IC50). Compared with the last compound, the IC50 is about 7-fold lower.

In the case of `CCOC(=O)c1[nH]c2ccc(-c3nc(C(=O)NCc4ccncc4)[nH]c3C)cc2c1F`, half-maximal inhibition (IC50) required 7 nM.

Take `Cc1noc(-c2cc3cc(-c4nc(C(=O)N5CCCC5)[nH]c4C)ccc3[nH]2)n1`: 113 nM corresponded to half-maximal inhibition (IC50).

`Cn1nc(C(=O)NCc2ccc(C(=O)O)cc2)cc1-c1ccc2[nH]c(-c3ccnc(F)c3)cc2c1` yielded an IC50 of 2 nM.

The compound `Cn1nc(C(=O)NCc2ccc(C(=O)O)cc2)cc1-c1ccc2[nH]c(-c3cccnc3)cc2c1` showed an IC50 of 3 nM.

Compound `Cn1nc(C(=O)NCc2ccc(C(=O)O)cc2)cc1-c1ccc2[nH]c(C#N)cc2c1` yielded an IC50 of 52 nM.

The compound `Cc1noc(-c2cc3cc(-c4cc(C(=O)NCc5ccc(F)cc5)nn4C)ccc3[nH]2)n1` returned an IC50 of 26 nM.

The compound `Cc1noc(-c2cc3cc(-c4cc(C(=O)NCc5ccn(C)n5)nn4C)ccc3[nH]2)n1` [1-methyl-5-[2-(3-methyl-1,2,4-oxadiazol-5-yl)-1H-indol-5-yl]-N-[(1-methyl-1H-pyrazol-3-yl)methyl]-1H-pyrazole-3-carboxamide] registered an IC50 of 185 nM. This IC50 is about 7.1-fold higher than that of the compound before.

For the compound `Cc1noc(-c2cc3cc(-c4nc(C(=O)NC(C)c5cccs5)[nH]c4C)ccc3[nH]2)n1` (stereo not drawn), the concentration for half-maximal inhibition (IC50) stood at 15 nM.

Turning to `CCOC(=O)c1cc2cc(-c3ccnc(C(=O)NCc4ccc(=O)[nH]c4)c3)ccc2[nH]1`, half-maximal inhibition (IC50) was put at 35 nM.

`Cc1noc(-c2cc3cc(-c4cc(C(=O)NCc5ccncc5)nn4C)ccc3[nH]2)n1` came in with an IC50 of 4 nM.

`Cc1noc(-c2cc3cc(-c4nc(C(=O)NCCN5CCOCC5)[nH]c4C)ccc3[nH]2)n1`: the half-maximal inhibitory concentration (IC50) came out at 5 nM. The IC50 values of the last two compounds are within 1.5-fold of each other.

`Cn1nc(C(=O)NCc2ccc(C(=O)O)cc2)cc1-c1ccc2[nH]c(-c3ccncc3)cc2c1` returned an IC50 of 0.8 nM.

In turn, `Cc1noc(-c2cc3cc(-c4nc(C(=O)NC[C@H]5CCCO5)[nH]c4C)ccc3[nH]2)n1` [5-methyl-4-[2-(3-methyl-1,2,4-oxadiazol-5-yl)-1H-indol-5-yl]-N-[(2R)-tetrahydrofuran-2-ylmethyl]-1H-imidazole-2-carboxamide] registered an IC50 of 5 nM.

In turn, `CCOC(=O)c1cc2cc(-c3cc(C(=O)NCc4ccc(CC(=O)O)cc4)nn3C)ccc2[nH]1` had an IC50 of 3 nM.

For the compound `Cc1[nH]c(C(=O)NCc2ccncc2)nc1-c1ccc2[nH]c(-c3nc(C(C)C)no3)cc2c1`, inhibition was half-maximal at 18 nM (IC50).

Consider `O=C(NCc1ccncc1)c1cc(-c2ccc3[nH]c(-c4ccncc4)cc3c2)ccn1` [4-(2-Pyridin-4-yl-1H-indol-5-yl)-pyridine-2-carboxylic acid (pyridin-4-ylmethyl)-amide], for which half-maximal inhibition (IC50) was put at 62 nM.

As for `Cn1nc(C(=O)NCc2ccc(C(=O)O)cc2)cc1-c1ccc2[nH]c(-c3cncnc3)cc2c1`, the IC50 is 5 nM.

With `Cc1nc(-c2cc3cc(-c4ccnc(C(=O)NCc5ccncc5)c4)ccc3[nH]2)no1`, the IC50 was 38 nM. This IC50 lies about 7.6-fold higher than the previous one.

The compound `Cc1noc(-c2cc3cc(-c4cc(C(=O)NCc5ccnc(Cl)c5)nn4C)ccc3[nH]2)n1` [N-[(2-chloropyridin-4-yl)methyl]-1-methyl-5-[2-(3-methyl-1,2,4-oxadiazol-5-yl)-1H-indol-5-yl]-1H-pyrazole-3-carboxamide] had an IC50 of 4 nM. Against the preceding compound, the IC50 is about 9.5-fold lower.

In the case of `CCOC(=O)c1cc2cc(-c3nc(C(=O)OCC)[nH]c3C)ccc2[nH]1` [5-(2-Ethoxycarbonyl-5-methyl-1H-imidazol-4-yl)-1H-indole-2-carboxylic acid ethyl ester], the IC50 was found to be 39 nM. This IC50 lies about 9.8-fold higher than the previous one.

Take `Cc1[nH]c(C(=O)NCc2ccncc2)nc1-c1ccc2[nH]c(-c3nc(C4CC4)no3)cc2c1`: the IC50 was determined as 6 nM.

For the compound `Cc1noc(-c2cc3nc(-c4nc(C(=O)NCc5ccncc5)[nH]c4C)ccc3[nH]2)n1`, the 50% inhibitory concentration (IC50) turned out to be 20 nM.
